How the values were obtained:
[1] = Stability against liver microsomes; format: in vitro ADME, human; conditions: for % degradation in 24 h when incubated with liver microsomes: 2 μM, 37° C.; for half-life at 2 μM: human, human liver microsomes, pH 7.8, 37° C., read-out: half-life (t1/2) with liver microsomes
Outline: (§1)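 Quench: TFA/H2O 10% v/v. HPLC, TFA/H2O equilibration, 1 mL/min; UV 206 nm. Peaks hand-collected → ESI-MS.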

human glucagon receptor = target: T1, human glucagon receptor (Homo sapiens, UniProt P47871); experiment: In vitro human glucagon antagonist activity (inhibition of cAMP production), CHO/human glucagon R cells; format: cell-based
T1 construct: The full-length cDNA was cloned in pcDNA3.1(Invitrogen); expressed in transfected cells
Experimental: CHO cells were grown in Ham's F12 medium containing L-Glutamine (2 mM), HEPES (25 mM), NaHCO3 (1.1 g/L) and supplemented with newborn Calf Serum (NBCS; 10%), Penicillin (50 U/ml (v/v)) and Streptomycin (50 ug/ml (v/v)). Cells were split every 3 days 1:8.
The full-length cDNA was cloned in pcDNA3.1(Invitrogen). […] Clones expressing the receptor were generated by G418 (800 μg/ml active, Sigma) selection. The stable clones were thereafter maintained at 500 ug/ml (G418). The selected clone was used between passages 9-25 for cAMP assays.
The trypsin was inactivated using Ham's F12 medium containing 10% NBCS and the cells were suspended in 2 ml of complete medium. […] The medium was aspirated off from the 12 well plate and the cells were washed once using Ham's F12 (plain). […] After the incubation; the medium was removed and cells were washed once with plain Ham's F12. Subsequently, the cells were lysed by adding 500 ul of ice cold 0.1 N HCl to each well and shaking for 30 minutes at 200 rpm. The cells were then scrapped, the lysate was collected in micro centrifuge tubes and centrifuged at 12000 rpm for 10 min to remove the debris. 300 ul of supernatant from each micro-centrifuge tube was then removed into a glass tube and dried under N2 for 30 min, for cAMP estimation. The total cAMP was estimated from the sample according to the manufacturer's protocol using Cyclic AMP immunoassay kit (R&D systems, Minneapolis: MN). The remaining supernatant is used to determine the protein concentration using micro BCA (Sigma). Data is calculated as percent of control (Vehicle: water) and expressed as Mean+SD.

[2] = Stability in human plasma; format: in vitro ADME; conditions: for half-life (t1/2) in human plasma / % degradation in 24 h when incubated with human plasma: 2 μM, 37° C.; for half-life at 2 μM: human, pooled human plasma, pH 7.8, 37° C., read-out: half-life (t1/2) in human plasma
Outline: as §1

DPP IV = DPP IV (Homo sapiens, UniProt P27487); experiment: Stability against DPP IV enzyme; format: in vitro ADME; conditions: for % degradation in 24 h when incubated with DPP-IV enzyme: 2 μM, 37° C.; for half-life at 2 μM: DPP IV enzyme, pH 7.8, 37° C., read-out: half-life (t1/2) with DPP-IV enzyme
Outline: as §1

[3] = system: RIN5F (Rat Insulinoma) cells; experiment: In vitro glucose-dependent insulin secretion (RIN5F cell assay); format: cell-based; conditions: 16.7 mM glucose load, mean ± S.D., n = 3
Experimental: After trypsinization, RIN5F cells were seeded at a concentration of 0.2×10^6·cells per well, in 12 well plates.
The supernatant was collected and the insulin amount was measured by ultra sensitive Rat insulin ELISA kit (Crystal Chem, Ill.). The protein was estimated in the supernatant using Bicinchoninic Acid kit, according to the manufacturer's protocol (Sigma Aldrich, Mo.). The total insulin content obtained in Pico-gram (pg) was divided with the total protein (μg) in order to normalize for differences in cell density between wells.

[4] = Stability in simulated intestinal fluid; format: in vitro ADME; conditions: 37° C.; for % degradation in 24 h when incubated with simulated intestinal fluid / half-life (t1/2) in simulated intestinal fluid: 2 μM, pH 7.5; for half-life at 2 μM: simulated intestinal fluid, pH 7.5, read-out: half-life (t1/2) in simulated intestinal fluid
Outline: as §1

[5] = Stability in simulated gastric fluid; format: in vitro ADME; conditions: 37° C., pH 1.5, pepsin; for % degradation in 24 h when incubated with simulated gastric fluid / half-life (t1/2) in simulated gastric fluid: 2 μM; for half-life at 2 μM: simulated gastric fluid with pepsin, read-out: half-life (t1/2) in simulated gastric fluid
Outline: as §1

[6] = 1 nM test compound (fourth concentration column, between 100 nM and 10 μM) with saturated concentration of glucagon peptide
[7] = 1 nM test compound with saturated concentration of glucagon peptide
[8] = 10 nM test compound with saturated concentration of glucagon peptide
[9] = 100 nM test compound with saturated concentration of glucagon peptide
[10] = 10 μM test compound with saturated concentration of glucagon peptide

DPP IV, sequence (P27487 whole entry, species assumed): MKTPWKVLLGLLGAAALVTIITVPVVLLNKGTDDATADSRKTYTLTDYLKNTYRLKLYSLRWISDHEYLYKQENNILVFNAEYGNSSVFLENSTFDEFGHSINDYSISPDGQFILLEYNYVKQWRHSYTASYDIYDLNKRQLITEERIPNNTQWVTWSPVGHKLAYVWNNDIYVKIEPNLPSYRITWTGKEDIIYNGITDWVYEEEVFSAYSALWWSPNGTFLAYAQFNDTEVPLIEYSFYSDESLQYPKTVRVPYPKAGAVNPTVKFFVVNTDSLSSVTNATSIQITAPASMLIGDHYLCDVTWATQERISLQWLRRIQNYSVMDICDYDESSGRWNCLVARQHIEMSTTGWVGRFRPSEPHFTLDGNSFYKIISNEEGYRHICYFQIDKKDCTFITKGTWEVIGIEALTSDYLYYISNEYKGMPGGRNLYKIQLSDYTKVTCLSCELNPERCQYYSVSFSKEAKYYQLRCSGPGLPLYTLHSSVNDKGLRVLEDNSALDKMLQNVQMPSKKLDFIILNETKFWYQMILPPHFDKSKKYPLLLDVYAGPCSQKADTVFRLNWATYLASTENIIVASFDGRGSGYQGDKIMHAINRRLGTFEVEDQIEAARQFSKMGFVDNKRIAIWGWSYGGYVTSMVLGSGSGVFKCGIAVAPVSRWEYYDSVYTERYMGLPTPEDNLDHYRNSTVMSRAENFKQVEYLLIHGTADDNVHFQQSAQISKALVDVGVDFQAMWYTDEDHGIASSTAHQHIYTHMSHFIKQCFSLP
T1 sequence (P47871 26-477): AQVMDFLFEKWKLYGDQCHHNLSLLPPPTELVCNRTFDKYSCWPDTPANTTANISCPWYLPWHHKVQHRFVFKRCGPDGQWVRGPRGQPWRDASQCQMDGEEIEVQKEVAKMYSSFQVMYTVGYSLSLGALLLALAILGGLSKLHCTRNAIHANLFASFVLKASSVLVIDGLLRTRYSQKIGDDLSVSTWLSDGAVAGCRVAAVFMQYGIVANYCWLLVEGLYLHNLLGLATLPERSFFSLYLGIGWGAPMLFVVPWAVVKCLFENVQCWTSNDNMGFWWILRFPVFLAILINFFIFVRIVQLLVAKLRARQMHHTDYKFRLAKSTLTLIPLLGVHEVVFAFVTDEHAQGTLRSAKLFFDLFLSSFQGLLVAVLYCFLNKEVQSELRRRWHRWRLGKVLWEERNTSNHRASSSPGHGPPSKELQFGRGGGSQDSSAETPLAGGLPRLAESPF

SMILES | % degradation in 24 h when incubated with liver microsomes [1] | half-life at 2 μM [1] | Human Glucagon receptor antagonistic activity, inhibition of cAMP production of Glucagon peptide (human glucagon receptor; [6]) | Human Glucagon receptor antagonistic activity, inhibition of cAMP production of Glucagon peptide (human glucagon receptor; [7]) | Human Glucagon receptor antagonistic activity, inhibition of cAMP production of Glucagon peptide (human glucagon receptor; [8]) | Human Glucagon receptor antagonistic activity, inhibition of cAMP production of Glucagon peptide (human glucagon receptor; [9]) | Human Glucagon receptor antagonistic activity, inhibition of cAMP production of Glucagon peptide (human glucagon receptor; [10]) | half-life (t1/2) in human plasma [2] | % degradation in 24 h when incubated with human plasma [2] | % degradation in 24 h when incubated with DPP-IV enzyme (DPP IV) | Insulin secretion ([3]; 0.1 nM test compd.) | Insulin secretion ([3]; 1 nM test compd.) | Insulin secretion ([3]; 10 nM test compd.) | % degradation in 24 h when incubated with simulated intestinal fluid [4] | half-life at 2 μM [4] | % degradation in 24 h when incubated with simulated gastric fluid [5] | half-life at 2 μM [5] | half-life at 2 μM [2] | half-life at 2 μM (DPP IV) | half-life (t1/2) in simulated intestinal fluid [4] | other results
CCc1cc(OC)ccc1-c1ccc(CC(NC(=O)[C@H](CC(=O)O)NC(=O)[C@H](CO)NC(=O)[C@@H](NC(=O)[C@H](Cc2ccccc2)NC(=O)[C@@H](NC(=O)CNC(=O)[C@H](CCC(N)=O)NC(=O)[C@H](CO)NC(=O)[C@@H](N)Cc2c[nH]cn2)[C@@H](C)O)[C@@H](C)O)C(=O)NC(Cc2ccc(-c3ccccc3F)cc2)C(N)=O)cc1 (single isomer, unassigned) [compound 7] | 100% | 30 min | 0 pmol/ml/μg prt | 6 ± 0.02 pmol/ml/μg prt | 5 ± 0.03 pmol/ml/μg prt | 2 ± 0.61 pmol/ml/μg prt | 0 pmol/ml/μg prt | (9) h | 80% | 77% | 11.1 ± 0.12 pg/µg/h | 13.1 ± 0.13 pg/µg/h | 19.0 ± 0.16 pg/µg/h | 100% | 30 min | 100% | 30 min | – | – | – | –
CCc1cc(OC)ccc1-c1ccc(CC(NC(=O)[C@H](CC(=O)O)NC(=O)[C@H](CO)NC(=O)[C@@H](NC(=O)C(C)(Cc2ccccc2F)NC(=O)[C@@H](NC(=O)CNC(=O)[C@H](CCC(N)=O)NC(=O)[C@H](CO)NC(=O)[C@@H](N)Cc2c[nH]cn2)[C@@H](C)O)[C@@H](C)O)C(=O)NC(Cc2ccc(-c3ccccc3F)cc2)C(N)=O)cc1 (single isomer, unassigned) [compound 23] | 82% | 60 min | 0 pmol/ml/μg prt | 4 ± 0.05 pmol/ml/μg prt | 2 ± 0.13 pmol/ml/μg prt | 2 ± 0.12 pmol/ml/μg prt | 0 pmol/ml/μg prt | – | 80% | 77% | 11.9 ± 0.17 pg/µg/h | 14.2 ± 0.13 pg/µg/h | 27.6 ± 0.16 pg/µg/h | 50% | – | 13% | – | 480 min | 540 min | (6) h | half-life (t1/2) in simulated gastric fluid [5]: (8) h
CCc1cc(OC)ccc1-c1ccc(CC(NC(=O)[C@H](CC(=O)O)NC(=O)[C@H](CO)NC(=O)[C@@H](NC(=O)[C@H](Cc2ccccc2)NC(=O)[C@@H](NC(=O)CNC(=O)[C@H](CCC(N)=O)NC(=O)[C@H](C)NC(=O)[C@@H](N)Cc2c[nH]cn2)[C@@H](C)O)[C@@H](C)O)C(=O)NC(Cc2ccc(-c3ccccc3C(F)(F)F)cc2)C(N)=O)cc1 (single isomer, unassigned) [compound 12] | 100% | 30 min | 0 pmol/ml/μg prt | 5 ± 0.09 pmol/ml/μg prt | 3 ± 0.11 pmol/ml/μg prt | 0 pmol/ml/μg prt | 0 pmol/ml/μg prt | (9) h | 70% | 72% | 12.9 ± 0.14 pg/µg/h | 15.8 ± 0.13 pg/µg/h | 29.9 ± 0.15 pg/µg/h | 100% | 30 min | 100% | 30 min | – | – | – | –
CCc1cc(OC)ccc1-c1ccc(CC(NC(=O)[C@H](CC(=O)O)NC(=O)[C@H](CO)NC(=O)[C@@H](NC(=O)C(C)(Cc2ccccc2F)NC(=O)[C@@H](NC(=O)CNC(=O)[C@H](CCC(N)=O)NC(=O)[C@H](C)NC(=O)[C@@H](N)Cc2c[nH]cn2)[C@@H](C)O)[C@@H](C)O)C(=O)NC(Cc2ccc(-c3ccccc3C)cc2)C(N)=O)cc1 (single isomer, unassigned) [compound 25] | 83% | 60 min | 8 ± 0.12 pmol/ml/μg prt | 18 ± 0.12 pmol/ml/μg prt | 16 ± 0.11 pmol/ml/μg prt | 12 ± 0.13 pmol/ml/μg prt | 6 ± 0.18 pmol/ml/μg prt | – | 75% | 74% | 12.4 ± 0.22 pg/µg/h | 15.2 ± 0.32 pg/µg/h | 29.6 ± 0.50 pg/µg/h | 46% | – | 12% | – | 480 min | 540 min | (6) h | half-life (t1/2) in simulated gastric fluid [5]: (8) h
CCc1cc(OC)ccc1-c1ccc(CC(NC(=O)[C@H](CC(=O)O)NC(=O)[C@H](CO)NC(=O)[C@@H](NC(=O)[C@H](Cc2ccccc2)NC(=O)[C@@H](NC(=O)CNC(=O)[C@H](CCC(N)=O)NC(=O)[C@H](CO)NC(=O)[C@@H](N)Cc2c[nH]cn2)[C@@H](C)O)[C@@H](C)O)C(=O)NC(Cc2ccc(-c3ccccc3C)nc2)C(N)=O)cc1 (single isomer, unassigned) [compound 6] | 100% | 30 min | – | – | – | – | – | (9) h | 77% | 75% | 12.4 ± 0.26 pg/µg/h | 15.2 ± 0.33 pg/µg/h | 29.6 ± 0.51 pg/µg/h | 100% | 30 min | 100% | 30 min | – | – | – | –

Source: patent publication US8841413B2, “Antidiabetic compounds” (Cadila Healthcare Limited, priority 2006, dated 2014)
